{"source": "paper PMC12678798", "about": "“Discovery of an allosteric binding site for anthraquinones at the human P2X4 receptor” (Nature Communications, 2025)", "key": {"[1]": {"molecular_target": "T1, human solubilized and purified P2X4-E307T receptor mutant reconstituted into nanodiscs (Homo sapiens, UniProt Q99571, E307T/N184R/N75R)", "T1 construct": "The full-length human P2X4 receptor gene was subcloned into the pFastBac1 vector; Rho1D4 (fused by GSSG linker) (C); GSSG linker + human rhinovirus 3C protease site + 10x-His (C); made in house; host or cells: Sf9 insect cells (baculovirus)", "T1 sequence (Q99571 whole entry N75R/N184R/E307T, the tested form may be a part)": "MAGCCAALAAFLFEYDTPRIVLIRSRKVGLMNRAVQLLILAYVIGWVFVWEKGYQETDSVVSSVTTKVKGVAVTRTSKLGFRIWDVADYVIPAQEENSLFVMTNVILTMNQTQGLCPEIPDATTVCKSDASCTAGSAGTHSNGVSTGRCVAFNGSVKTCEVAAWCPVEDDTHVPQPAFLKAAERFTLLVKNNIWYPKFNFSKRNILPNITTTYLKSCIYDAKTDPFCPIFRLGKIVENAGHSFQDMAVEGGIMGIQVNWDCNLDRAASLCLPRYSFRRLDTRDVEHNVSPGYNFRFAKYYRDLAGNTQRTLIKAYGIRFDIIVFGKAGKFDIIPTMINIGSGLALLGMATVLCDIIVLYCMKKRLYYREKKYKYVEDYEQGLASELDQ", "assay": "Homologous competition binding vs [35S]ATPγS, purified P2X4-E307T receptor in nanodiscs", "conditions": "0.2 nM [35S]ATPγS; P2X4-E307T construct in nanodiscs", "procedure": "(§1) Radioligand binding studies were performed according to a published procedure. […] After an incubation of 1 h at room temperature, the incubation was terminated by rapid vacuum filtration through GF/B glass fiber filters using a Brandel 48-well harvester (Brandel). The filters were rinsed three times with ice-cold Tris-HCl buffer (50 mM, pH 7.4, 3-4 mL each) to separate unbound from bound radioligand. After punching out the filters and transferring them into scintillation vials, scintillation cocktail (2.5 mL, Ultima Gold®) was added. The samples were measured after 6 h of preincubation using a liquid scintillation counter for 1 min each. All data from calcium influx assays and radioligand binding studies were analyzed using Microsoft Excel. […] KD and Bmax values from radioligand binding assays were calculated by using the “one site-homologous” equation, implemented in GraphPad Prism version 8.0. The level of significance was calculated by a one-way ANOVA with Dunnett's post hoc test, in case there was a control group, and multiple comparison was required. […] The significance levels were defined as follows: *P < 0.05, **P < 0.01, ***P < 0.001, ****P < 0.0001."}, "human wt P2X4 receptor": {"molecular_target": "T2, human wt P2X4 receptor (Homo sapiens, UniProt Q99571)", "T2 construct": "expressed in transfected cells", "T2 sequence (Q99571 1-388)": "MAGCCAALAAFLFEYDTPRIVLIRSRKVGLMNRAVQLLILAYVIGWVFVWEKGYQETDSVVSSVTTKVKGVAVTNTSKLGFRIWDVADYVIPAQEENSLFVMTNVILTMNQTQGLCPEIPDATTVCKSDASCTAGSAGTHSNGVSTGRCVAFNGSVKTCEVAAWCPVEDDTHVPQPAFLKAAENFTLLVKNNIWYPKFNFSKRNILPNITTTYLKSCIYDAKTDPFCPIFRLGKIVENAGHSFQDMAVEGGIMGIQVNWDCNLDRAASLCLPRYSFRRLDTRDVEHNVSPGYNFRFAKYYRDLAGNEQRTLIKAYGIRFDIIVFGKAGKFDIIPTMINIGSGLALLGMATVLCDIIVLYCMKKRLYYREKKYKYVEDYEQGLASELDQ", "assay": "Homologous competition binding vs [35S]ATPγS, 1321N1 astrocytoma cell membranes", "conditions": "0.2 nM [35S]ATPγS, 1321N1 membranes", "procedure": "as §1"}, "human P2X4 receptor [2]": {"tested_on": "human P2X4 receptor", "set-up": "method as in not given", "conditions": "assay and ref not given; cited from earlier work"}, "[3]": {"set-up": "method as in not given", "conditions": "ref not given; cited from earlier work"}, "[4]": {"set-up": "method as in not given", "conditions": "rebuttal comparison table; ref not given; cited from earlier work"}, "human P2X4 receptor [5]": {"molecular_target": "human P2X4 receptor", "set-up": "method as in https://doi.org/10.1124/mol.114.096222", "conditions": "patch clamp, HEK293; ref https://doi.org/10.1124/mol.114.096222; read-out: Potency (IC50 value) at the human P2X4 receptor; cited from earlier work"}, "human P2X4 receptor [6]": {"molecular_target": "human P2X4 receptor", "set-up": "method as in ref 10.1016/j.heliyon.2023.e21265", "conditions": "SPR competition assay; ref 10.1016/j.heliyon.2023.e21265; read-out: Potency (IC50 value) at the human P2X4 receptor; cited from earlier work"}, "mouse P2X4 receptors": {"tested_on": "mouse P2X4 receptors", "set-up": "method as in not given", "conditions": "ref not given; cited from earlier work"}, "rat P2X4 receptors": {"tested_on": "rat P2X4 receptors", "set-up": "method as in not given", "conditions": "ref not given; cited from earlier work"}}, "note": "Where two headings read alike, the source gives them in different places.", "data": [{"compound": "Nc1ncnc2c1ncn2[C@@H]1O[C@H](CO[P@](=O)(O)O[P@](=O)(O)O[P@@](=O)(O)S)[C@@H](O)[C@H]1O", "note": "[ATPγS]", "values": [{"measurement": "Dissociation constant (KD value)", "setting": "[1]", "result": "6.01 ± 0.81", "unit": "nM"}, {"measurement": "Kd", "setting": "human wt P2X4 receptor", "result": "14.1 ± 2.7", "unit": "nM"}]}, {"compound": "NS(=O)(=O)c1cc(NC(=O)Cc2ccccc2)ccc1Oc1cccc(Cl)c1", "note": "[BAY-1797, N-4-(3-chlorophenoxy)-3-sulfamoylphenyl-2-phenylacetamide]", "values": [{"measurement": "Extent of receptor inhibition (no complete inhibition)", "setting": "human P2X4 receptor [2]", "result": "about 80%"}, {"measurement": "Oral bioavailability", "setting": "[3]", "result": "orally bioavailable"}]}, {"compound": "CC(C)c1cc(Br)c(NC(=O)Nc2cccnc2)c(Br)c1", "note": "[BX430]", "values": [{"measurement": "Lipophilicity", "setting": "[4]", "result": "Lipophilic"}, {"measurement": "IC50", "setting": "human P2X4 receptor [5]", "result": 540, "unit": "nM"}, {"measurement": "IC50", "setting": "human P2X4 receptor [6]", "result": 4500, "unit": "nM"}, {"measurement": "Potency at mouse compared with human P2X4 receptors", "setting": "mouse P2X4 receptors", "result": "significantly weaker"}, {"measurement": "Potency at rat compared with human P2X4 receptors", "setting": "rat P2X4 receptors", "result": "significantly weaker"}]}]}
